Assay results reported in paper PMC12584752, “Covalent fragment screening to inhibit the E3 ligase activity of bacterial NEL enzymes SspH1 and SspH2” (RSC Chemical Biology, 2025).

Tests used:
Conditions in all cases: live HEK293T cells, 50 μM, four hours
[1] = target: T1, SspH1 expressed in HEK293T cells (Salmonella typhimurium, UniProt D0ZVG2); experiment: In cellulo target engagement, IA-DTB chemoproteomics; type: cell-based
T1 construct: SspH1 (aa 1–700) and SspH2 (aa 1–786) genes were cloned separately; expressed in transfected cells; host or cells: HEK293T
T1 sequence (D0ZVG2 whole entry, the tested form may be a part): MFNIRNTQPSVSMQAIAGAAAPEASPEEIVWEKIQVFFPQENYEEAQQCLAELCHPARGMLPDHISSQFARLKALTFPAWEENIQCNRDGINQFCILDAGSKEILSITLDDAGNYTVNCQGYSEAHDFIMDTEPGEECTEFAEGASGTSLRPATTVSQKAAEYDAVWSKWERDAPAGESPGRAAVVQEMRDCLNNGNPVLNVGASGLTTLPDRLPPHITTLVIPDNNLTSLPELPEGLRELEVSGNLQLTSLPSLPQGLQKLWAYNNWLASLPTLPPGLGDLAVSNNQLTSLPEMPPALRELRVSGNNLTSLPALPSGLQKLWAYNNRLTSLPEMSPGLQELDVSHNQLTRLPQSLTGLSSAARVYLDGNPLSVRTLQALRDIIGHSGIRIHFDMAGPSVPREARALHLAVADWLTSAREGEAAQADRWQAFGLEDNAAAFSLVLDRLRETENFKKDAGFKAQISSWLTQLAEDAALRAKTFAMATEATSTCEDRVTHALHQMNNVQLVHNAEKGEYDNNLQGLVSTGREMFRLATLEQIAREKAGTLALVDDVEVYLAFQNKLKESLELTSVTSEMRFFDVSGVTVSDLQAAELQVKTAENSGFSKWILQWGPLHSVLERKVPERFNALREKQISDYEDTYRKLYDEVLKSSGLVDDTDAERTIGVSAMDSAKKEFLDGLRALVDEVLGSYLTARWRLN
Method: (§1) Fig. 5 Characterisation of protein interactions by compounds 6 and 7. (A) SspH1 and SspH2 catalytic cysteine labelling with compound 6 (100–3.125 μM, 4 hours) in HEK293T lysate spiked with recombinant SspH1 and SspH2. Data are presented as mean ± SEM, n = 4. The curves were fitted with GraphPad Prism 10 using four parameter nonlinear regression with baseline correction to DMSO-treated samples. (B) SspH1 and SspH2 catalytic cysteine labelling with compound 7 (100–3.125 μM, 4 hours) in HEK293T lysate spiked with recombinant SspH1 and SspH2. Data are presented as mean ± SEM, n = 4. The curves were fitted with GraphPad Prism 10 using four parameter nonlinear regression with baseline correction to DMSO-treated samples. (C) Volcano plot of IA-DTB competition in SspH1 expressing HEK293T cells treated with compound 6 (50 μM, 4 hours). (D) Volcano plot of IA-DTB competition in SspH2 expressing HEK293T cells treated with compound 6 (50 μM, 4 hours). Data is shown as compared to DMSO treated samples, with competed peptides in the upper left-hand quadrant. […]
(§2) All cells were grown in DMEM media (Gibco, 41966-029) supplemented with FBS (ThermoFisher, A5256701) and Pen/Strep (Gibco, 15140-122) at 37 °C with 5% CO2. […] Protein concentrations were measured using a Rapid BCA Gold Protein Assay Kit (Thermo Scientific, A53226) and diluted to 1 mg mL^−1 with lysis buffer. […]

[2] = target: T2, SspH2 expressed in HEK293T cells (Salmonella typhimurium, UniProt D0ZPH9); experiment: as above; type: cell-based
T2 construct: SspH1 (aa 1–700) and SspH2 (aa 1–786) genes were cloned separately; expressed in transfected cells; host or cells: HEK293T
T2 sequence (D0ZPH9 1-786): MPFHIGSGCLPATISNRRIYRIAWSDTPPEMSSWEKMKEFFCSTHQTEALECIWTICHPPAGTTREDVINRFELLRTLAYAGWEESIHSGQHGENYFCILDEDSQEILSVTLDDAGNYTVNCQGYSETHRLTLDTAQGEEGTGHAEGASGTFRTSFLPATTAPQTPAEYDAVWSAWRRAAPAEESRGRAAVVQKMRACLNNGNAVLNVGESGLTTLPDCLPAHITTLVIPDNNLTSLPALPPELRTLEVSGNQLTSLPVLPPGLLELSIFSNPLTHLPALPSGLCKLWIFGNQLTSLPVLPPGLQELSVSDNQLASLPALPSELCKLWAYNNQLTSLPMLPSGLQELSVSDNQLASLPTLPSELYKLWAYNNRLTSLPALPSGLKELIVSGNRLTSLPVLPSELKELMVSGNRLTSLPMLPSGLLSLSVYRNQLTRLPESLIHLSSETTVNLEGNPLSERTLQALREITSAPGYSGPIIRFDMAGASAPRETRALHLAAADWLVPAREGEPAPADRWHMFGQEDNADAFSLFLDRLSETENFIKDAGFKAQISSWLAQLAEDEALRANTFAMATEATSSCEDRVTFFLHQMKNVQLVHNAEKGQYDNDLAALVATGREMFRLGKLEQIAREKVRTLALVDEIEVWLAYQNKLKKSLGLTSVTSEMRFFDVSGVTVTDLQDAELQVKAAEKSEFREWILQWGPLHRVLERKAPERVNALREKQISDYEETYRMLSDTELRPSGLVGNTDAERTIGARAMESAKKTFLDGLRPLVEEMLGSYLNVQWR
Method: as §1, §2

[3] = test system: mammalian proteins in HEK293T cells; experiment: In cellulo IA-DTB chemoproteomics, off-target engagement; type: cell-based, human
Method: as §1, §2

## Cc1cc(-c2nc3ccccc3n2C2CCN(C(=O)CCl)CC2)cc(C)c1O.Cl [compound 6]
[1]
  competition of IA-DTB labelling of catalytic cysteine C492 peptide of SspH1: strong competition
[2]
  competition of IA-DTB labelling of C580 peptide of SspH2: strong competition
[3]
  engagement of catalytic cysteines-containing peptides of HECT or RBR E3 ligases, or DUBs: none
  engagement of mammalian proteins: engagement of multiple mammalian proteins
